Columns and labels:
[1] = tested on: Trypanosoma cruzi; assay: (§1) GSK_TCAKS: pIC50 H2C9 Imaging: H9c2 Host Cardiomyocytes. […] Cells were then washed once with PBS before infection. T. cruzi trypomastigotes, collected at days 5 to 8 after infection from LLC-MK2 parasite infected cultures, were allowed to swim out for 4h at 37C from a centrifuged pellet (2,500 rpm/10 min/room temperature). Trypomastigotes were then collected and counted in a CASY Cell Counter. Trypomastigotes, in supplemented DMEM, were added to H9c2 cultures in a multiplicity of infection of 1 and incubated for 18 h. Cells were washed once with PBS before incubation of the infected H9c2 monolayer with trypsin (Life-Technologies) to detach cells from the flask. Cells were counted in a CASY Cell Counter using a 150 um capillary and their density set at 5 * 10^4 cells per mL in supplemented assay DMEM. Infected H9c2 were dispensed into 384-well poly-lysine coated assay plates at 50uL per well using a Multidrop Combi dispenser. After seeding them, the plates were incubated at 37C, 5% CO2 for 72h. Cultures were then fixed and stained by addition of 50 uL of a solution containing 8% formaldehyde and 4 uM DRAQ5 DNA dye (BioStatus, UK) per well. […] Five images were collected per well for reliable statistical analysis. Automated image analysis was performed with a script developed on Acapella High Content Imaging and Analysis Software (PerkinElmer). Output: Number of H9c2 Host Cardiomyocytes nuclei to determine drug-related cytotoxicity.; format: functional, organism-based, Rattus norvegicus; details: H9c2, 4 h
[2] = tested on: Trypanosoma brucei brucei; assay: GSK_TCAKS: pIC50 Trypanosoma brucei viability assay using luminiscence. Assay plates (1536-well) were prepared. T. brucei cultures were harvested and counted in a CASY cell counter. A parasite suspension was prepared at a final concentration of 5 * 10^4 cells/mL in complete HMI9 medium and 6uL was dispensed to all wells containing compounds using a Multidrop Combi dispenser. 6uL of HMI9 media with 0.4% DMSO were dispensed to control columns. Plates were incubated for 24 h at 37C, 5% CO2 then tempered for 10 min at room temperature. ATP content was quantified by adding 4 uL of CellTiter-Glo Reagent (Promega) according to the manufacturer's instructions. Luminescence was measured using a ViewLux.; format: functional, organism-based; details: Lister 427, CASY
[3] = tested on: Trypanosoma cruzi; assay: GSK_TCAKS: pIC50 Trypanosoma cruzi viability assay using beta-GAL activity. This assay was run at single shot at 5uM compound concentration per well. The biological reagents consisted of NIH-3T3 host cells and trypomastigotes parasitic cells; both cell types were set to a 3.3 * 10^5 cells/mL dilution in assay DMEM by means of a CASY cell counter device using a 60um capillary. 6 uL of the mixture were dispensed per well (about 1 * 10^3 host-cells and 1 * 10^3 parasites) with a Multidrop Combi dispenser. […] In all wells, the percentage of DMSO never exceeded 0.5%. Plates incubated for four days at 37C, 5% CO2. The substrate used for the assay fluorescence intensity (FLINT) readout was resorufin-beta-D-galactopiranoside (Sigma-Aldrich) at 5uM per well. It was diluted in PBS supplemented with the soft detergent Igepal (Fluka).; format: functional, organism-based, Mus musculus; details: Tulahuen, NIH3T3
[4] = tested on: Leishmania donovani; assay: GSK_TCAKS: pIC50 Leishmania donovani Imaging: THP-1 Host Macrophages. Assay plates (384-well) were prepared by adding 250nL of compound to each well. For single shot assay, the final compound concentration was 5 uM. […] Automated image analysis was performed with a script developed on Acapella High Content Imaging and Analysis Software (PerkinElmer). Output: THP-1 cell count were reported for each well.; format: functional, organism-based, Homo sapiens
[5] = tested on: Trypanosoma brucei brucei; assay: GSK_TCAKS: pIC50 Trypanosoma brucei viability assay using fluorescence intensity. Assay plates (1536-well) were prepared by dispensing 25nL of compound solution per well using an Echo acoustic dispenser (Labcyte).; format: functional, organism-based; details: Lister 427, 2 h
[6] = tested on: Trypanosoma cruzi; assay: as §1, with “Trypanosoma cruzi” for “H2C9”, “Amastigotes/Cell.” for “H9c2 Host Cardiomyocytes.”, “number” for “Number”, “amastigotes per cell as infection level measurement.” for “H9c2 Host Cardiomyocytes nuclei to determine drug-related cytotoxicity.”; format: functional, organism-based, Rattus norvegicus; details: H9c2, 4 h
[7] = tested on: Leishmania donovani; assay: GSK_TCAKS: pIC50 Leishmania donovani Imaging: Infected Macrophages. Assay plates (384-well) were prepared by adding 250nL of compound to each well. For single shot assay, the final compound concentration was 5 uM. […] Automated image analysis was performed with a script developed on Acapella High Content Imaging and Analysis Software (PerkinElmer). Output: Percent of infected macrophage cells were reported for each well.; format: functional, organism-based, Homo sapiens; details: THP-1
[8] = target: Sterol 14-alpha demethylase (Trypanosoma cruzi (strain CL Brener), UniProt Q7Z1V1); assay: GSK_TCAKS: pIC50 CYP51 from Trypanosoma cruzi.; format: functional
[9] = tested on: Leishmania donovani; assay: GSK_TCAKS: pIC50 Leishmania donovani viability assay using fluorescence intensity. Assay plates (1536-well) were prepared by adding 30nL per well of compound. For single shot assay, the final compound concentration was 5uM. […] Briefly, eGFP LdBOB axenic amastigotes were harvested, fixed and counted in a CASY cell counter (Roche-Applied Science). A final concentration of 1.5 * 10^5 cells per well were prepared in amastigote media containing 500 U/mL penicillin/streptomycin (Invitrogen) and 6uL was dispensed to each experimental well using a Multidrop Combi dispenser (Thermo Scientific). 6uL of assay media was dispensed to control columns used as reference for 100% compound response. Following incubation for 72 h at 37C, 5% CO2, 2 uL of resazurin was added to each well at a final concentration of 0.5 mM in phosphate buffered saline (PBS) with IGEPAL (Sigma-Aldrich), 0.05% (v/v).; format: functional, organism-based
[10] = GSK_TCAKS: pIC50 HepG2 human cell line viability assay using luminiscence. […] Seeding density was checked to ensure that new mono-layers were not more than 50% confluent at the time of harvesting. Cell suspension was added to 500 mL of the same medium at a final density of 1.2 * 10^5 cells/mL. This cell suspension was dispensed (25 uL, 3000 cells per well) into 384-well clear-bottom plates using a Multidrop Combi dispenser. Prior to addition of the cell suspension, the screening compounds (250 nL) were pre-dispensed into the plates with an Echo liquid handler. Plates were incubated for 48 h at 37C, 5% CO2. After incubation, plates equilibrated at room temperature for 30 min before proceeding to develop the luminescent signal. The signal developer, CellTiter-Glo Reagent, was allowed to equilibrate at room temperature for 30 min and added to the plates (25uL per well) using a Multidrop Combi dispenser. Plates were left for 10 min at room temperature for stabilization and then read using a ViewLux.; format: toxicity, cell-based
[11] = tested on: Trypanosoma cruzi; assay: as §1, with “Trypanosoma cruzi” for “H2C9”, “Infected Cells.” for “H9c2 Host Cardiomyocytes.”, “percentage” for “Number”, “infected cells per well as a second infection marker.” for “H9c2 Host Cardiomyocytes nuclei to determine drug-related cytotoxicity.”; format: functional, organism-based, Rattus norvegicus; details: H9c2, 4 h
[12] = tested on: Leishmania donovani; assay: GSK_TCAKS: pIC50 Leishmania donovani Imaging: Amastigotes/Macrophages. Assay plates (384-well) were prepared by adding 250nL of compound to each well. For single shot assay, the final compound concentration was 5 uM. […] Automated image analysis was performed with a script developed on Acapella High Content Imaging and Analysis Software (PerkinElmer). Output: Average number of amastigotes per macrophage cell were reported for each well.; format: functional, organism-based, Homo sapiens; details: THP-1

Sterol 14-alpha demethylase, sequence (Q7Z1V1 whole entry): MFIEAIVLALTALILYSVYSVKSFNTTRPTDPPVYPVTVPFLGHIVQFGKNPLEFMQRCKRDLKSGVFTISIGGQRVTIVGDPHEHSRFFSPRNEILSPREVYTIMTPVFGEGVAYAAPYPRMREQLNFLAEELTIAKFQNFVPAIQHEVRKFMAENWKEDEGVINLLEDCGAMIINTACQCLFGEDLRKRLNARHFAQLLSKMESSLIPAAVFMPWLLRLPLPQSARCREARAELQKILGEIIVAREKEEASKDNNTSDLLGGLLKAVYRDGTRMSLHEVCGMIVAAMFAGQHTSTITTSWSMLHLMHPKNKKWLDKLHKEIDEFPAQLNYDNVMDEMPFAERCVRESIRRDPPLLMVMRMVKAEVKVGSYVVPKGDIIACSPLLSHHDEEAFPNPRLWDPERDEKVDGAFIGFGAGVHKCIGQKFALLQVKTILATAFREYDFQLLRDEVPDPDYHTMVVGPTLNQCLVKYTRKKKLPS

| Structure (SMILES) | IC50 [1] | IC50 [2] | IC50 [3] | IC50 [4] | IC50 [5] | IC50 [6] | IC50 [7] | IC50 [8] | IC50 [9] | IC50 at 48 h [10] | IC50 [11] | IC50 [12] |
| --- | --- | --- | --- | --- | --- | --- | --- | --- | --- | --- | --- | --- |
| CC(C)Nc1nc(Cl)nc2ccccc12 | 7.94 µM | 12.6 µM | 3.98 µM | 20 µM | 5.01 µM | 3.98 µM | 2.51 µM | > 100 µM | 20 µM | 39.8 µM | 10 µM | 1.26 µM |
| O=C(NCCc1csc(-c2ccc(F)cc2)n1)c1cccs1 | > 50.1 µM | 0.2 µM | 0.398 µM | > 50.1 µM | 0.251 µM | 0.251 µM | > 50.1 µM | 25.1 µM | > 50.1 µM | > 100 µM | 0.398 µM | 20 µM |
| CCCCCNC(=O)c1c[nH]c2ccc(S(=O)(=O)N(C)c3ccc(OCC)cc3)cc2c1=O | > 50.1 µM | 0.251 µM | 31.6 µM | > 50.1 µM | 0.316 µM | > 50.1 µM | > 50.1 µM | 1.58 µM | > 50.1 µM | > 100 µM | > 50.1 µM | > 50.1 µM |
| CC(=O)Nc1ccc(Nc2nccc(-c3cnn4ncccc34)n2)cc1C(F)(F)F | 0.0631 µM | 0.0501 µM | 0.0501 µM | 0.01 µM | 0.0316 µM | 0.2 µM | 0.0251 µM | 31.6 µM | 0.2 µM | > 100 µM | 0.501 µM | 0.0158 µM |
| Cc1[nH]nc(C(F)(F)F)c1NC(=O)CCn1cc(Cl)c([N+](=O)[O-])n1 | > 50.1 µM | 0.794 µM | 7.94 µM | 15.8 µM | 0.501 µM | 6.31 µM | > 50.1 µM | > 100 µM | > 50.1 µM | > 100 µM | 25.1 µM | > 50.1 µM |
| COc1ncc(-c2ccc3ncnc(N4CCOCC4)c3c2)cc1NS(C)(=O)=O | 1.58 µM | 0.501 µM | 0.501 µM | 1 µM | 0.316 µM | 2.51 µM | 5.01 µM | 39.8 µM | 3.16 µM | > 100 µM | 6.31 µM | 0.631 µM |
| CC1CCCCN1C(=O)NCCc1coc(-c2ccc(F)cc2)n1 (configuration not stated) | > 50.1 µM | 0.158 µM | 0.398 µM | > 50.1 µM | 0.126 µM | 0.316 µM | > 50.1 µM | > 100 µM | > 50.1 µM | > 100 µM | 0.316 µM | > 50.1 µM |
| CNC(=O)C1Cc2ccccc2N1C(=O)COc1cccc(OC)c1 (configuration not stated) | > 50.1 µM | 1 µM | > 50.1 µM | > 50.1 µM | 0.631 µM | > 50.1 µM | > 50.1 µM | 100 µM | > 50.1 µM | > 100 µM | > 50.1 µM | > 50.1 µM |
| CNc1nc(C)nc(N2CCc3cc(C(=O)NCc4ccc(-c5nccn5C)cc4Cl)ccc32)n1 | 50.1 µM | 20 µM | 5.01 µM | 25.1 µM | 12.6 µM | 5.01 µM | 0.794 µM | 1.58 µM | 5.01 µM | 31.6 µM | 12.6 µM | 0.794 µM |
| Cc1cc(Nc2ccc(C#N)c(Cl)c2C)[nH]n1 | > 50.1 µM | 0.251 µM | 25.1 µM | 20 µM | 0.00794 µM | 20 µM | > 50.1 µM | 39.8 µM | 50.1 µM | > 100 µM | > 50.1 µM | > 50.1 µM |
| CCc1ccccc1[C@@H](C)NC(=O)c1cnc2c(cnn2CC)c1NC1CCN(C(N)=O)CC1 | > 50.1 µM | 0.501 µM | 25.1 µM | > 50.1 µM | 0.251 µM | 39.8 µM | > 50.1 µM | 79.4 µM | > 50.1 µM | > 100 µM | > 50.1 µM | > 50.1 µM |

From ChEMBL document CHEMBL3430912, “GSK Tres Cantos Anti-Kinetoplastid Screening (TCAKS) Data”
